Source: patent US20180064662A1 (THE GENERAL HOSPITAL CORPORATION, priority 2015, published 2018)

Key:
[1] = system: human PSC viability; experiment: MTT viability assay on PSCs; assay type: cell-based
[2] = patients with type 2 diabetes taking this drug; cited from earlier work
[3] = system: human pancreatic stellate cells (PSCs); experiment: Human PSCs incubated with metformin in vitro (immunofluorescence, Western blot); assay type: cell-based
Protocol: Following treatment, cells were collected for RNA and protein extraction in order to perform subsequent analysis of gene expression of cytokines and polarization markers, and for analysis of signaling and metabolic pathways. […] Cells were collected for protein extraction for analysis of the activation of fibrosis-related pathways. […] The cells were fixed with 4% paraformaldehyde and blocked with 5% normal donkey serum for 1 h. They were incubated with the designated primary antibodies overnight at 4° C. then for 2 h with the appropriate secondary antibodies at RT. PBS was used for all washes and the stained samples were mounted with Prolong Gold with DAPI. Images were acquired using a confocal microscope. The antibodies used and image acquisition settings are described below. Both cell types were grown in Dulbecco's modified Eagle's medium (Sigma, St. Louis, Mo.) supplemented with 5% (v/v) heat inactivated fetal bovine serum (FBS; Sigma), 100 units/ml penicillin and streptomycin. Cells were cultured at 37° C. in a humidified atmosphere including 5% CO2.
Each tumor sample was homogenized directly in lysis buffer for protein extraction. 20 ug of denatured protein per sample was loaded on 7%, 10% and 12% SDS-polyacrylamide gels. Antibodies used: phospho-p38 MAPKT^180/Y182 and p38; phospho-JNK (SAPK/JNK)^Thr183/Tyr185 and JNK; phospho-AKT^Ser473 and AKT, phospho-ERK(p44/42 MAPK)^T202/Y204 and ERK; phospho-NF-κB^Ser536 and NK-κB; p65^Ser536; phospho-Smad2^Ser465/467 and Smad2; phospho-IGF-I Receptor β^Tyr1135 and IGF; Phospho-IRS-1^Ser612 and IRS; IR; phpspho-stat3^Tyr705 and stat3; Phospho-AMPKα^Thr172 and Ampkα; phospho-Ampkβ^Ser108 and Ampk; phospho-ACC^Ser79 and ACC; Phospho-PDGF Receptor β^Tyr751 and PDGF Receptor β and snail, c-cadherin and vimentin, TGF-β, β-catenin, twist, LC3B. All antibodies listed above were obtained from Cell Signaling Technology (Beverly, Mass.), and diluted 1:1000 with the exception of phospho-JNK (SAPK/JNK)^Thr183/Tyr185, Phospho-NF-κB p65^Ser536, phospho-Smad2^Ser465/467, phospho-IGF-I Receptor β^Tyr1135, Cleaved caspase-3, Phospho-IRS-1^Ser612. Other antibodies used were: αSMA and phospho-Insulin Receptor^Y972 (1:1000 and 1:500, Abcam, Mass.); col-1 (1:1000); MMP-9 and MMP-2 (1:500 and 1:200, EMD Millipore-Billerica, Mass.), AT1 (1:1000, LifeSpan BioSciences Inc, WA), ZEB1 (1:1000, Novus Biologicals, CO), and β-actin (1:5000, Sigma, Mo.). Quantification of protein expression relative to total receptor or β-actin was obtained using Image J software.

[4] = system: PAN02 tumors
Source text: All experimental use of animals was approved by the institutional animal care and use committee at Massachusetts General Hospital (MGH). All animal procedures abided by Public Health Service Policy on Humane Care of Laboratory Animals guidelines. All mice were bred and maintained MGH animal facility. Wild-type (WT) C57BL/6 mice were originally obtained from the Jackson Laboratory (The Jackson Laboratory, Bar Harbor, Me.) but were bred and maintained in a defined-flora colony. VEGFR1 tyrosine kinase-knockout mice (Flt1^TK−/−) of mixed C57BL/6 and SV129 strain background were originally developed at the University of Tokyo, Japan (Hiratsuka et al. Proc Natl Acad Sci USA (1998)95(16): 9349-54), and subsequently backcrossed to 99.9% C57BL/6 strain background (N10 equivalent) at Massachusetts General Hospital. Strain background was verified by the Jackson Laboratory's Speed Congenic Development Service. Genotyping was performed using polymerase chain reaction (PCR) analysis, as previously described (Hiratsuka et al.). Age-matched animals were used for all experiments. Mice were maintained on a 12-h light-dark cycle in a temperature-controlled barrier facility, with ad libitum access to food and acidified water, unless otherwise specified.
Mice (7-week old) were given either 10% or a 60% fat diet (D12450J and D12492, Research Diets, New Brunswick, N.J.) for 10 weeks, as described in Surwit et al. Metabolism (1995) 44(5):645-51. Body weight was monitored weekly and mice on a high-fat diet were defined as obese if their body weight was greater than 3 SD above the weight of the low fat diet group. At the end of the experiment, animals were weighed and euthanized, and the inguinal, perigonadal, and perineal fat pads were excised and weighed.
Glucose (GTT) and insulin tolerance tests (ITT) were performed after 8 and 9 weeks on the diet, respectively. Male mice were fasted for 16 hours (5pm-9am) for GTT, or 3 hours (9am-12pm) for ITT. Glucose (0.75 mg/g body weight) or insulin (1U/kg body weight) was administered by intraperitoneal (i.p.) injection, and tail blood was sampled at 0, 15, 30, 60, 90, and 120 minutes after administration of glucose/insulin. Blood glucose levels were measured using a Precision Xtra glucose meter (Abbott Diagnostics, Bedford, MA, USA). Glucose tolerance was evaluated calculating the area under the curve (AUC) for each mouse according to the following equation: […]
C57BL/6 VEGFR1(TK)−/− or WT obese and lean mice (after 10 weeks of diets) were used for tumor implantation studies. To induce pancreatic tumors, small (˜1 mm in diameter) chunks from a PAN02 pancreatic tumor source were grafted in the pancreata of obese and lean male mice. To induce breast tumors, 1×10^6 E0771 breast cancer cells were implanted in the mammary fat pad of lean and obese female mice. About 3 weeks after implantation, tumors were removed and tissue was assessed for immune cell infiltration, gene and protein expression of inflammatory, metabolic and major signaling pathway markers. Plasma was also collected and assessed for insulin, IGF-1, glucose and inflammatory markers (see below). Metastatic burden was assessed by counting lung metastasis in the E0771 breast cancer model, and evaluating abdominal wall invasion as well as mesentery metastasis in the PAN02 pancreatic cancer model. For abdominal wall invasion, animals were scored from 0 to 3 based on the extent of invasion: 0=no invasion, 1=less than 3 metastasis, 2=less than 6 metastasis, 3=more than 6 metastasis.
Immediately following excision, tumor tissue was snap frozen and stored in liquid nitrogen until used. Total RNA was extracted and relative gene expression was determined using RT2 Profiler PCR Arrays system (Qiagen) on a Stratagene Mx3000P QPCR System.

[5] = VEGFR-1 inhibition and metformin combined

CN(C)C(=N)N=C(N)N [metformin, 3-(diaminomethylidene)-1,1-dimethylguanidine]
doses at which metformin significantly reduces PSC viability ([1]; 48 h, MTT): > 7.5 mM | viability of PSCs ([1]; metformin 1 mM): does not substantially affect the viability | approximate plasma concentration of metformin [2]: ~0.05 mM | protein levels of MMP9 in PSCs ([3]; metformin 0, 0.1, 1 and 10 mM, Western blot): decreased protein levels of MMP9 | expression of HA in PSCs ([3]; metformin 1 mM, 48 h): decreased | expression of collagen-I in PSCs ([3]; metformin 1 mM, 48 h): decreased | expression of AT1, TGF-β and downstream signaling via SMAD-2, PDGF-I3 ([3]; metformin 0.1-1mM, Western blot): reduced expression | canonical signaling pathways ERK, p38 and STAT3 ([3]; relatively higher doses (1-10 mM)): affected canonical signaling pathways | pericyte coverage in tumors [4, 5]: increased pericyte coverage | vessel density in tumor and adipose tissue [4, 5]: unaltered vessel density | tumor cell apoptosis ([4]; combination group): increased tumor cell apoptosis | tumor cell proliferation ([4]; combination group): decreased proliferation | fraction of perfused vessels ([4]; combination group compared to control or anti-VEGFR-1 alone): significantly higher | IR/IGF-1 signaling or AMPK/ACC activation ([4]; obese Flt1TK-/- mice with metformin): no changes | plasma insulin ([4]; obese Flt1TK-/- mice, 3 weeks after implantation of PAN02): prevented the increased insulin | PAN02 tumor weight ([4]; obese mice, VEGFR-1 inhibition and metformin combined): at its lowest | expression of major gluconeogenic genes downregulated by VEGFR-1 inhibition ([4]; obese tumors): restored expression of major gluconeogenic genes
